Assay results as given in ChEMBL document CHEMBL1201862, “PubChem BioAssay data set” (2004).
Calls of active or inactive are those of the source.

What was measured:
[1] = cells; format: functional, cell-based
[2] = cells; format: functional, cell-based; remark: listed apart in the source
[3] = THP-1 cell cytotoxicity, dose response, cytotoxicity control for Vif-APOBEC3G degradation inhibitor project, THP-1 cells (AID 1117359); format: functional; conditions: Human immunodeficiency virus 1, THP-1
[4] = target: T1, Polyadenylate-binding protein 1 (Homo sapiens, UniProt P11940); test: PABP1 MLLE–PAM2 binding inhibitor potency, dose response, biochemical, fluorescence polarization, FITC-PAM2 peptide (AID 602259); format: functional; conditions: read-out: IC50_Mean
T1 sequence (P11940 whole entry): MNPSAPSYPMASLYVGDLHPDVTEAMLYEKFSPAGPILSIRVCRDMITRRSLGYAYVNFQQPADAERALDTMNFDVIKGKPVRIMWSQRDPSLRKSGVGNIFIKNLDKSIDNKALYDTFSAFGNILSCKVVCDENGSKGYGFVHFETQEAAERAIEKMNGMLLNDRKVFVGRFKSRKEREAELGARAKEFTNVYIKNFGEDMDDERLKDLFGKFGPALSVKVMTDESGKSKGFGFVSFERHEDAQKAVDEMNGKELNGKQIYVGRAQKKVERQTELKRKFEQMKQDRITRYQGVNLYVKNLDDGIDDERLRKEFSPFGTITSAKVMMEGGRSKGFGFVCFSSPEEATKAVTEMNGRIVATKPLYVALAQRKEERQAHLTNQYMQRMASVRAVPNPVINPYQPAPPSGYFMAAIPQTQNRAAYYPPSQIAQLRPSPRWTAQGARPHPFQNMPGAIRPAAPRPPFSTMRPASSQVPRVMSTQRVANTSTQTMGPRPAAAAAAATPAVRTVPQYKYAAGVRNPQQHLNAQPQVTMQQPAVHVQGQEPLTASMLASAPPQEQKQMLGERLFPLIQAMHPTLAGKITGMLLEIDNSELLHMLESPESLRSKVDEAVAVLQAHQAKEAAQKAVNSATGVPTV

[5] = target: T1, Polyadenylate-binding protein 1; test: PABP1 MLLE–PAM2 interaction inhibitors, dose response, miRNA deadenylation inhibitor project, biochemical, fluorescence polarization, Cy5-PAM2 peptide, secondary (AID 602260); format: functional; conditions: read-out: IC50_Mean
[6] = target: Heat shock protein HSP 90-alpha (Homo sapiens, UniProt P07900); format: functional, organism-based
[7] = inhibitors of HIV Env-driven cell fusion, dose response, cherry-pick (AID 652057); format: functional, cell-based
[8] = ZM109 Env clade C HIV-1 fusion inhibitors, dose response, HeLa effector, CEM target cells, luciferase, cherry-pick (AID 652058); format: functional, cell-based
[9] = inhibitors of clade B AD8 Env fusion, dose response, cell-based, cherry-pick (AID 652062); format: functional;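 further: luciferase signal from cell-cell fusion driven by HIV-1 clade B AD8 Env; potency is for inhibitors of fusion seen as a drop in luminescence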
[10] = CEM21 lymphoblast cell cytotoxicity, dose response, cytotoxicity control for viral fusion inhibitor project, CellTiter-Glo luminescence, cherry-picked (AID 652042); format: functional, cell-based;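 further: potency for signal decrease meaning cytotoxicity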
[11] = target: Cytochrome P450 2C19 (Homo sapiens, UniProt P33261); test: Cytochrome panel assay with activity outcomes. Panel member name: p450-cyp2c19 Compounds with AC50 equal or less than 10 uM are considered active; format: functional; conditions: read-out: AC50
Chain of Cytochrome P450 2C19 (P33261 whole entry): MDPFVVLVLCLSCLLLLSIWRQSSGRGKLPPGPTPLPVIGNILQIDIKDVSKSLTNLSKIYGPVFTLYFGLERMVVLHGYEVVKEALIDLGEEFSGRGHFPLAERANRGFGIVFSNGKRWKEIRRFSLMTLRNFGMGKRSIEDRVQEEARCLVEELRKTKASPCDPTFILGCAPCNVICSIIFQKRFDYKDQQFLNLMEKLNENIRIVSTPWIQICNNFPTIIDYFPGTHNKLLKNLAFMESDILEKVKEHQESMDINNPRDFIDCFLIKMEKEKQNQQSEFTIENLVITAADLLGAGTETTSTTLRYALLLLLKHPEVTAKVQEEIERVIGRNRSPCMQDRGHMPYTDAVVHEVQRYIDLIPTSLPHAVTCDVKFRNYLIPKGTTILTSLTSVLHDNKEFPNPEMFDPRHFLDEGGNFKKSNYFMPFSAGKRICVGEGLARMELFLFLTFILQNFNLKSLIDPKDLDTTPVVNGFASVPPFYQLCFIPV

[12] = MC4R antagonists, dose response, counter-screen for LGR2 antagonist project, cell-based, plate reader, cherry pick (AID 743444); format: functional;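 further: transfected HEK 293 cells stimulated with alpha-MSH peptide; potency of inhibitors of the alpha-MSH evoked signal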
[13] = LGR2 antagonists, dose response, cell-based, HEK293, CRE-luciferase reporter, cherry pick, set 2 (AID 743343); format: functional;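 further: transfected cells were stimulated with diluted bursicon conditioned medium after compound addition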
[14] = test system: HEK293; test: cells; conditions: Homo sapiens
[15] = test system: HEK293; test: cells; conditions: Homo sapiens; remark: listed apart in the source
[16] = THP-1 cell cytotoxicity, dose response, cytotoxicity control for non-replicating M. tuberculosis project (AID 489025); format: functional
[17] = target: DNA dC->dU-editing enzyme APOBEC-3G (Homo sapiens, UniProt Q9HC16); test: Dose Response confirmation of small molecule APOBEC3G DNA Deaminase Inhibitors via a fluorescence-based single-stranded DNA deaminase assay. [Related pubchem assays (depositor defined):AID493012, AID493028]; format: functional
Chain of DNA dC->dU-editing enzyme APOBEC-3G (Q9HC16 whole entry): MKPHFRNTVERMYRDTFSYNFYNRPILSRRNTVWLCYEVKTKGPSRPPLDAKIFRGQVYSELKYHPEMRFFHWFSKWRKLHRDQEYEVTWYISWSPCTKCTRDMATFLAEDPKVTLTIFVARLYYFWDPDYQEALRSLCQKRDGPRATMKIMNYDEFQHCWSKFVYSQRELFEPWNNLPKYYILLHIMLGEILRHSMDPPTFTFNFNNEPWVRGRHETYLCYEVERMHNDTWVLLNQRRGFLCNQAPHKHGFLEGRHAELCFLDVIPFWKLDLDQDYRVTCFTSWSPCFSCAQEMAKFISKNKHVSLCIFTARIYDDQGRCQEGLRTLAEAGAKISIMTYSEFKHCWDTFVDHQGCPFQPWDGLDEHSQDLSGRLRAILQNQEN

[18] = target: DNA dC->dU-editing enzyme APOBEC-3A (Homo sapiens, UniProt P31941); test: APOBEC3A DNA deaminase inhibitors, dose response, biochemical (AID 504722); format: functional
Chain of DNA dC->dU-editing enzyme APOBEC-3A (P31941 whole entry): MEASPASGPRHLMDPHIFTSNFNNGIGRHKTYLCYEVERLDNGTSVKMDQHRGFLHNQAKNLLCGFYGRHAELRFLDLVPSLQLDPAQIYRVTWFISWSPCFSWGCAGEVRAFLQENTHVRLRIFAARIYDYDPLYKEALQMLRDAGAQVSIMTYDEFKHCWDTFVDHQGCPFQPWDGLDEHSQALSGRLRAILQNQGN

[19] = target: T2, Sentrin-specific protease 8 (Homo sapiens, UniProt Q96LD8); format: functional;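 further: luminescence read-out of SENP8 inhibition, dose-response confirmation following an ultra-high-throughput screen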
T2 sequence (Q96LD8 whole entry): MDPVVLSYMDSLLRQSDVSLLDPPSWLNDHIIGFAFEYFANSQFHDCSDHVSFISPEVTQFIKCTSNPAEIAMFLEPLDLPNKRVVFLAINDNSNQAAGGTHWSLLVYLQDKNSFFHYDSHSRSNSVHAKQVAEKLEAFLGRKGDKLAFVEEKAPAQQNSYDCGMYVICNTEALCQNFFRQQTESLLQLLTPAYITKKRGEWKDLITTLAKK

[20] = target: T3, Sentrin-specific protease 6 (Homo sapiens, UniProt Q9GZR1); format: functional;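 further: Luminescence-based dose-response confirmatory assay of SENP6 inhibition, following up an ultra-high-throughput screen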
T3 sequence (Q9GZR1 whole entry): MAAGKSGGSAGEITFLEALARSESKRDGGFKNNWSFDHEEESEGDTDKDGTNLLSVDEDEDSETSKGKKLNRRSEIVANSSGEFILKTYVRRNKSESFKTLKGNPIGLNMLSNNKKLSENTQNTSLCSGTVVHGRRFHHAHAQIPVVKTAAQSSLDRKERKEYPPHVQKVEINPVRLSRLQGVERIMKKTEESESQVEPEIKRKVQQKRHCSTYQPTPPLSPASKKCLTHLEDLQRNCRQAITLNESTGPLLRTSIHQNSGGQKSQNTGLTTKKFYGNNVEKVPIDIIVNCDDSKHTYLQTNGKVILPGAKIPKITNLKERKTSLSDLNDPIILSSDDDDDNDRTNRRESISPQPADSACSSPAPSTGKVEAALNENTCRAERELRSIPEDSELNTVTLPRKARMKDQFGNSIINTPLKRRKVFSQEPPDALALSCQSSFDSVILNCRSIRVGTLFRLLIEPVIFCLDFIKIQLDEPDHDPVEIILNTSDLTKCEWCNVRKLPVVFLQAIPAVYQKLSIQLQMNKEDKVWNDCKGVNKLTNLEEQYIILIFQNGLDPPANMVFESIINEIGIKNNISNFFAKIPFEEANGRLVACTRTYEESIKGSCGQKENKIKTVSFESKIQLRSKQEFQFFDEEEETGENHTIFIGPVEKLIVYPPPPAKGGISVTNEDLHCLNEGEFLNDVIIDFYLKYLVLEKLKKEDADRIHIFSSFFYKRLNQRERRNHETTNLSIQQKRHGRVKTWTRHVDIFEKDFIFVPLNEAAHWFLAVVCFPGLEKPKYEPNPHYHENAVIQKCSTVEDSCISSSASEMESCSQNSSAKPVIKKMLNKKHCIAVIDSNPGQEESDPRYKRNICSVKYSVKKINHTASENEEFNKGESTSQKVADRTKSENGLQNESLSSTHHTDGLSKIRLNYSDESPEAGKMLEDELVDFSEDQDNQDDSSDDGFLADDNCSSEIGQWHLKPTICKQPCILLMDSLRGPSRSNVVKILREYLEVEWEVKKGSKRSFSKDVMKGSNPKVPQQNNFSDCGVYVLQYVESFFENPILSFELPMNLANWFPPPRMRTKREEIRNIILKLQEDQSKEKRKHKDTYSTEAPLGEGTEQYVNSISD

[21] = target: T4, Caspase-3 (Homo sapiens, UniProt P42574); format: functional;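 further: Dose-response selectivity test against caspase-3 for candidate inhibitors of sentrin-specific proteases (SENPs)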
T4 sequence (P42574 whole entry): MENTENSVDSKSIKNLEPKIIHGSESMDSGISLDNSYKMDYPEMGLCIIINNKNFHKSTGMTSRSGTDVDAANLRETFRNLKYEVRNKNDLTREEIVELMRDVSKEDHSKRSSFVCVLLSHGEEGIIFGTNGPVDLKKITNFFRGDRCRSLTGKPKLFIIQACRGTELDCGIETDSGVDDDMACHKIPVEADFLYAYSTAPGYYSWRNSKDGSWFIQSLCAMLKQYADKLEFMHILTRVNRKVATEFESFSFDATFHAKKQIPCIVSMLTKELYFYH

[22] = HEp-2 cell cytotoxicity, dose response, cytotoxicity control for RSV inhibitor project, HTS (AID 2410); format: functional; conditions: human respiratory syncytial virus
[23] = growth suppression of PTEN-null colon cells, dose response, cell-based, HCT116 PTEN knockout (AID 1047); format: functional;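 further: HCT116 colon tumor cells with PTEN knocked out; cells exposed to compound for 60 hours before readout; potency for loss of cell viability measured by luminescence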
[24] = inhibitors of intracellular T. cruzi replication, confirmation, NIH3T3 host cells, beta-gal luminescence (AID 2044); format: functional, cell-based;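 further: intracellular parasites grown in NIH/3T3 mouse fibroblasts as host cells; luminescent beta-galactosidase reporter signal from transgenic T. cruzi replicating inside host cells; inhibitors lower the luminescence signal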
[25] = growth suppression of beta-catenin-knockout colon cells, dose response, cell-based, HCT116, human colon tumor (AID 1045); format: functional;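 further: HCT116 colon tumor cells with beta catenin knocked out; cells exposed to compound for 60 hours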
[26] = cytotoxicity toward NIH3T3 fibroblasts, dose response, counter-screen, cell-based, ATP luminescence, mouse fibroblasts (AID 2010); format: functional;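 further: cells exposed to compound for about 90 hours before reading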
[27] = target: T5, Calpain-2 catalytic subunit (Sus scrofa, UniProt P43367); test: pig calpain II inhibitor potency, dose response, biochemical, fluorogenic peptide substrate (AID 1420); format: functional
T5 sequence (P43367 whole entry): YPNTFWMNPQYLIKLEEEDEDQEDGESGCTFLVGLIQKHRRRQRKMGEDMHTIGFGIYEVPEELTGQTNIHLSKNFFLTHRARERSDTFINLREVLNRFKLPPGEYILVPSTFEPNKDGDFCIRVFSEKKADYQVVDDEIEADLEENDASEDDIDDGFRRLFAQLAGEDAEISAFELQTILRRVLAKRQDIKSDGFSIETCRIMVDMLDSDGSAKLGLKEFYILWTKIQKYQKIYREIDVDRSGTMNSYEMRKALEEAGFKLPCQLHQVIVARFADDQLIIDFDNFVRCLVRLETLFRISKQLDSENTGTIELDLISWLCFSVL

[28] = C. albicans growth with fluconazole, confirmation, fluorescence, retest (AID 2467); format: functional, cell-based
[29] = NIH-3T3 fibroblast cytotoxicity, dose response, cytotoxicity control, cell-based, fluorescence, Alamar Blue, secondary assay (AID 2327); format: functional;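 further: NIH-3T3 mouse fibroblasts cultured with fluconazole at 8 µg/mL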
[30] = target: Induced myeloid leukemia cell differentiation protein Mcl-1 (Homo sapiens, UniProt Q07820); format: functional
Chain of Induced myeloid leukemia cell differentiation protein Mcl-1 (Q07820 whole entry): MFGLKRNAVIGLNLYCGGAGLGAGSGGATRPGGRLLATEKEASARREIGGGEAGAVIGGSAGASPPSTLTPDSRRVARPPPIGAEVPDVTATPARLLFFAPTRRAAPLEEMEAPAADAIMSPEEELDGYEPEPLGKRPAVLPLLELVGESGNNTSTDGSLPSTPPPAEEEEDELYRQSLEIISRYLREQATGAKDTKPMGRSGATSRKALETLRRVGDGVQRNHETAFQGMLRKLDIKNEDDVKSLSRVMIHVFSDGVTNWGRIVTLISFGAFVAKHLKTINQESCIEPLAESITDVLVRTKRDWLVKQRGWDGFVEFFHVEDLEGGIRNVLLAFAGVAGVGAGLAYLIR

[31] = target: FAD-linked sulfhydryl oxidase ALR (Homo sapiens, UniProt P55789); test: inhibitors of human ALR sulfhydryl oxidase, dose response, biochemical, H2O2 detection, luminescence, cherry-pick (AID 493248)
Chain of FAD-linked sulfhydryl oxidase ALR (P55789 whole entry): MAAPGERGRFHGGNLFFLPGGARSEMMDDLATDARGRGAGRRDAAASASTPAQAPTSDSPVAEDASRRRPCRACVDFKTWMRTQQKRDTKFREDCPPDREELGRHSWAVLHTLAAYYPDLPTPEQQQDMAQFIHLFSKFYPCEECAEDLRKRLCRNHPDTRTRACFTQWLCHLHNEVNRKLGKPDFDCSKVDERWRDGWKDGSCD

SMILES: CC(C)COc1cccc(C(=O)NNC(=O)C2COc3ccccc3O2)c1 (stereo not drawn)
- EC50 [1]: > 350 µM (not active)
- EC50 [2]: > 350 µM (not active)

SMILES: COc1cc(SC)ccc1C(=O)Nc1c(C)cccc1C
- CC50 [3]: > 40 µM (active)

SMILES: CC(=O)NNC(=O)CN1C(=O)/C(=C/c2ccccc2)SC1=S
- IC50 [4]: > 66 µM (inactive)
- IC50 [5]: > 66 µM (inactive)

SMILES: CCN(CC(=O)Nc1ccc2c(c1)OCCO2)CC(=O)Nc1ccc2c(c1)OCO2
- EC50 [1]: > 350 µM (not active)
- EC50 [2]: > 350 µM (not active)

SMILES: Cc1[nH]n(C2=NCCS2)c(=O)c1N=Nc1ccccc1
- IC50 [4]: > 66 µM (inactive)
- IC50 [5]: > 66 µM (inactive)

SMILES: CCOC(=O)C1=C(N)N2C(=O)C(C)SC2=C(C(=O)OC)C1c1ccccc1OC (stereo not drawn)
- AC50 [6]: 0.982 µM (active)

SMILES: O=C(C[C@H]1CC[C@@H](NC(=O)c2cccc(F)c2)[C@@H](CO)O1)NCc1ccc(Oc2ccccc2)cc1
- AC50 [7]: 0.525 µM (active)
- AC50 [8]: 1.21 µM (active)
- AC50 [9]: 1.2 µM (active)
- AC50 [10]: 58.1 µM (active)

SMILES: CSc1ccc(NC(=O)Nc2cc(C)ccn2)cc1
- AC50 [11]: 3.98 µM (inconclusive)
- AC50 [12]: 9.27 µM (active)
- AC50 [13]: 3.7 µM (active)

SMILES: C=CCn1c(S)nnc1-c1csc(-c2ccc(OC)c(OC)c2)n1
- EC50 [14]: > 0.736 µM (active)
- EC50 [15]: > 59.7 µM (inactive)

SMILES: Cc1ccc2c(c1)C(=O)C(=O)N2CCCOc1ccccc1
- CC50 [16]: > 40 µM (active)

SMILES: COc1ccccc1OCC(=O)Nn1c(=S)[nH]c2ncccc2c1=O
- IC50 [4]: > 66 µM (inactive)
- IC50 [5]: > 66 µM (inactive)

SMILES: C[C@H](C(=O)N(C)C[C@@H]1OCc2ccccc2-c2c(n(C)c3ccccc23)C(=O)N([C@@H](C)CO)C[C@H]1C)c1ccccc1
- AC50 [7]: 4.94 µM (active)
- AC50 [8]: 12 µM (active)
- AC50 [9]: 8.67 µM (active)
- AC50 [10]: 22.5 µM (active)

SMILES: CN(C)c1oc(-c2ccccc2[N+](=O)[O-])nc1C#N
- IC50 [4]: > 66 µM (inactive)
- IC50 [5]: > 66 µM (inactive)

SMILES: N#CC1=C2SCN(c3ccccc3)CN2C(=O)CC1c1c(Cl)cccc1Cl (stereo not drawn)
- IC50 [17]: 4.44 µM (active)
- IC50 [18]: > 100 µM (inactive)

SMILES: Cc1ccc(Cl)c2sc(NC(=O)C3=COCCO3)nc12
- IC50 [19]: > 100 µM (inactive)
- IC50 [20]: 13.1 µM (active)
- IC50 [21]: 63.4 µM (active)

SMILES: Cc1ccc2[nH]c(C)c(/C=N/Nc3nc4ccccc4s3)c2c1
- CC50 [22]: 14.6 µM (active)
- AC50 [6]: 5.3 µM (active)
- EC50 [23]: 18 µM (active)
- EC50 [24]: 2.24 µM (active)
- EC50 [25]: 19.7 µM (active)
- EC50 [26]: > 60 µM (inconclusive)

SMILES: Cc1ccc(C)c(N2CCN(C(=O)C3CCCCN3S(=O)(=O)c3ccc(F)cc3)CC2)c1 (stereo not drawn)
- IC50 [27]: 7.84 µM (not active)

SMILES: Cc1ccc(NC(S)=NCC23C=CC(O2)C2C(=O)N(c4ccc(C)cc4)C(=O)C23)cc1 (stereo not drawn)
- AC50 [6]: 4.6 µM (active)

SMILES: CSc1ccccc1NC(=O)COc1ccccc1C
- IC50 [27]: 8.86 µM (not active)

SMILES: Sc1nnc(-c2ccccc2)n1/N=C/c1cccs1
- IC50 [17]: 1.81 µM (active)
- EC50 [28]: 2.56 µM (active)
- IC50 [18]: > 100 µM (inactive)
- EC50 [29]: > 160 µM (inactive)

SMILES: Cc1ccc(N2C(=O)C3C4C=CC(CN=C(S)N5CCN(c6ccccc6)CC5)(O4)C3C2=O)cc1 (stereo not drawn)
- AC50 [6]: 14.9 µM (active)

SMILES: Cn1cccc1/C=N/n1c(S)nnc1-c1ccco1
- IC50 [17]: 3.92 µM (active)
- IC50 [18]: > 100 µM (inactive)

SMILES: O=c1[nH]c(=O)n([C@@H]2O[C@H](CO)[C@@H](O)[C@H]2O)cc1F [5-FLUOROURIDINE]
- EC50 [14]: > 59.6 µM (inactive)
- EC50 [15]: > 59.6 µM (inactive)

SMILES: O=C(/C=C/c1cccs1)N1CCN(c2ccc(O)cc2)CC1
- IC50 [30]: 5.63 µM (active)
- CC50 [3]: > 40 µM (active)

SMILES: CC1Cc2ccccc2N1C(=O)COC(=O)Cn1nnc(-c2ccccc2)n1 (stereo not drawn)
- IC50 [27]: 8.56 µM (not active)

SMILES: COc1cccc(/C=N/n2c(S)nnc2-c2cc(C)[nH]n2)c1OC
- IC50 [17]: 3.89 µM (active)
- IC50 [18]: > 100 µM (inactive)
- AC50 [31]: 4.04 µM (active)

SMILES: O=C(O)c1ccccc1NC(c1ccccc1)c1ccc2cccnc2c1O (stereo not drawn)
- AC50 [6]: 7.23 µM (active)
